Data reported in the NIST ThermoML archive (doi:10.1016/j.tca.2009.06.018).
± gives the expanded uncertainty stated by the source.

Conditions: Crystal; DTA

| Normal melting temperature [°C] | SMILES |
| --- | --- |
| 32.31 ± 0.5 | CCCCCCCCCC(=O)O [decanoic acid] |
| 44.92 ± 0.5 | CCCCCCCCCCCC(=O)O [dodecanoic acid] |
| 64.07 ± 0.5 | CCCCCCCCCCCCCCCC(=O)O [hexadecanoic acid] |
| 70.83 ± 0.5 | CCCCCCCCCCCCCCCCCC(=O)O [octadecanoic acid] |
| 16.48 ± 0.5 | CCCCCCCC(=O)O [octanoic acid] |
| 55.73 ± 0.5 | CCCCCCCCCCCCCC(=O)O [tetradecanoic acid] |
